Data published in patent US10577341B1, “Beraprost-314d monohydrate crystals and methods for preparation thereof” (CHIROGATE INTERNATIONAL INC., priority 2018, dated 2020).

Assays:
[1] = Stability of anhydrous form versus monohydrate form of Beraprost-314d; assay and total impurities by HPLC after storage at 40° C.; format: physicochemical; conditions: for Assay / Total Impurities: 40° C./60% RH, HPLC
Protocol: The Beraprost-314d monohydrate is stable at room temperature. For example, the formation of dimer and/or unwanted esterification byproducts by the presence of hydrates can be avoided. […] The assay and total impurities of Beraprost-314d monohydrate and anhydrous Beraprost-314d were measured by HPLC after treatment at 40° C., as shown in Table 3.

[2] = Crystalline form transformation of Beraprost-314d monohydrate Form A to Form B, followed by XRPD after isothermal standing; format: physicochemical; conditions: for XRPD pattern after heating (crystalline form): 24 hours
Protocol: X-ray Powder Diffraction (XRPD) Analysis: The XRPD patterns were collected on a Bruker D2 PHASER diffractometer with fixed divergence slits and 1D LYNXEYE detector. The samples (ca. 100 mg) were placed flat on a sample holder. The prepared samples were analyzed over a 2θ range from 5° to 50° with step size of 0.02 degrees and step time of 1 second using CuKα radiation at a power of 10 mA and 30 kV The CuKβ radiation was removed by a divergent beam nickel filter,
The critical temperature (T*). of crystalline form transformation of Beraprost-314d monohydrate Form A and Form B was determined. Crystalline Beraprost-314d monohydrate Form A (0.10 g, from Example 3) was placed in glass vials, and heated to 25° C., 27° C., 29° C., 31° C., 33° C., and 35° C. and isothermal stood for 24 hours.

[3] = 3 days, listed as Beraprost-314d monohydrate, monohydrate

Compound | Assay ([1]; 1 day) [%] | Total Impurities ([1]; 1 day) [%] | Assay ([1]; 2 days) [%] | Assay ([1]; 3 days) [%] | Total Impurities ([1]; 3 days) [%] | Stability compared with the anhydrous form ([1]; 40° C. for 3 days) | Total Impurities ([1]; 2 days) [%] | Assay [1, 3] | Total Impurities [1, 3] [%] | Assay ([1]; 3 days, monohydrate) [%] | Total Impurities ([1]; 3 days, monohydrate) [%] | XRPD pattern after heating (crystalline form) ([2]; 25° C., 27° C. and 29° C.) | XRPD pattern after heating (crystalline form) ([2]; 31° C., 33° C. and 35° C.) | Critical temperature (T*) of crystalline form transformation from Form A to Form B ([2]; isothermal standing for 24 hours, XRPD)
CC#CC[C@H](C)[C@H](O)/C=C/[C@@H]1[C@H]2c3cccc(CCCC(=O)O)c3O[C@H]2C[C@H]1O [Anhydrous Beraprost-314d, Beraprost-314d] | 99.30 | 0.84 | 99.01 | 98.95 | 1.19 | – | – | – | – | – | – | – | – | –
CC#CC[C@H](C)[C@H](O)/C=C/[C@@H]1[C@H]2c3cccc(CCCC(=O)O)c3O[C@H]2C[C@H]1O.O [Beraprost-314d Monohydrate, Beraprost-314d monohydrate] | 99.89 | 0.17 | 99.77 | – | – | more stable than the anhydrous Beraprost-314d | 0.25 | no apparent decrease | 0.33 | 99.69 | 0.33 | – | – | –
CC#CC[C@H](C)[C@H](O)/C=C/[C@@H]1[C@H]2c3cccc(CCCC(=O)O)c3O[C@H]2C[C@H]1O.O [Beraprost-314d monohydrate] | – | – | – | – | – | – | – | – | – | – | – | remain Form A without any Form B feature peaks | an intermediate state containing both Form A and Form B | about 30±5 °C
